Here are results for one compound from BindingDB's records for doi:10.1016/j.bmcl.2004.12.073 (Vernalis (R&D), 2005).

The test concerns the target Cyclin-A2/Cyclin-dependent kinase 2 (Homo sapiens, UniProt P24941). Description: CDK Inhibition Assay. The following applies: pH 7.5; 22 °C. Here is the method:
In vitro kinase assay using purified CDK2/Cyclin A was incubated at room temperature with substrate, and test compounds in the presence of 100 uM ATP/ [gamma-33P] ATP. Assays were performed in 96-well polypropylene plates. 33P incorporation into substrate was measured using a scintillation counter.

`CC(C)c1cnn2c(Nc3ccc(S(C)(=O)=O)cc3)cc(Cl)nc12` [5-chloro-N-(4-methanesulfonylphenyl)-3-(propan-2-yl)pyrazolo[1,5-a]pyrimidin-7-amine]: the IC50 was determined as 230 nM.

For orientation: IC50 means the concentration at which inhibition is half-maximal. The low end stands for higher potency, the high end for lower potency.
